# Measurements: patent publication US12060592B2, “Lov-D acyltransferase mediated acylation” (priority 2009, dated 2024)
# Biological target: T1, LovD acyltransferase (Aspergillus terreus, UniProt Q9Y7D1)
# T1 sequence (Q9Y7D1 1-413): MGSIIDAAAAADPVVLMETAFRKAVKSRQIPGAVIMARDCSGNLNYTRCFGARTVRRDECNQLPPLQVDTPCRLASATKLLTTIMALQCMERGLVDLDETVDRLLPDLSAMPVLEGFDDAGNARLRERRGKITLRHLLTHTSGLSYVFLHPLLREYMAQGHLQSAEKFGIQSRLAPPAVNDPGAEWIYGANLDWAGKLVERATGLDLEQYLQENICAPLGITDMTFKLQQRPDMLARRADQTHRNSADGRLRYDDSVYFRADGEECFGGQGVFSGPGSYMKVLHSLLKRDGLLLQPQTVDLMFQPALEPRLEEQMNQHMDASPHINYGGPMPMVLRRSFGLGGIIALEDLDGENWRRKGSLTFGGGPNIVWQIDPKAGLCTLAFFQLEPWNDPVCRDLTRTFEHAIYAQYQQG
# Assay: LovD acyltransferase mediated acylation: relative activity of thioester acyl donors
# Type: biochemical
# Details: thioester as acyl donor
# Description: Any one or more compounds shown in Table 1 may be used as thioesters in the methods of the present disclosure. Compound IV is one preferred thioester as its relative activity is high.
row,SMILES,Relative activity at 24 h (%)
1,CCC(C)(C)C(=O)SCCC(=O)OC [Compound IV],++++ (++++ = 75-100)
2,CCCCSC(=O)C(C)(C)CC [IX],+++ (+++ = 10-75)
3,CCC(C)(C)C(=O)SC(C)C [VIII],+ (+ = 0-1)
4,CCSC(=O)C(C)(C)CC [VII],++ (++ = 1-10)
5,CCC(C)(C)C(=O)SC [VI],+ (+ = 0-1)
6,CCC(C)(C)C(=O)SCC(=O)OC [V],++ (++ = 1-10)
